Tested on: SRS-A formation in rat mononuclear cells
Test: SRS-A formation in rat mononuclear cells incubated with cysteine and challenged with a calcium ionophore
Type: cell-based
Settings: 10 μg/ml; for inhibition at 10 µg/mL: Rattus norvegicus, read-out: effectiveness in preventing the synthesis of SRS-A
Method: As an example of the SRS-A inhibitory activity of the compounds of this invention, several of these compounds were evaluated in a standard laboratory test. This test is conducted in rat mononuclear cells incubated in the presence of cysteine and challenged with a calcium ionophore (which induces SRS-A formation). In this test system, two of these compounds, the isomers of 1-carboxy-3-N-octylcyclopropane-2-octanoic acid.

## CCCCCCCCC([Se]c1ccccc1)C(O)CCCCCCCC(=O)O (stereo not drawn) [9-Hydroxy-10-Phenylselenyloctadecanoic Acid]
  inhibition at 10 µg/mL: 100%

## CCCCCCCCC(O)C(CCCCCCCC(=O)O)[Se]c1ccccc1 (stereo not drawn) [9-Phenylselenyl-10-Hydroxyoctadecanoic Acid]
  inhibition at 10 µg/mL: 100%

## CCCCCCCCC1C(CCCCCCCC(=O)O)C1C(=O)O (stereo not drawn) [Example 4, 1-Carboxy-3-n-Octylcyclopropane-2-Octanoic Acid]
Rat mononuclear cells, calcium ionophore challenge
  inhibition of the synthesis of SRS-A: totally inhibited

From patent publication US4537723A, “Derivatives of leukotrienes A and C” (The Upjohn Company, priority 1983, dated 1985)
